Key:
Details in all cases: incubation time: 72 h
HCC1143 [1] = assay: normalised viability (% of control), CellTiter-Blue; higher = more viable cells (about 100 = DMSO control)
Procedure, shortened: (§1)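 Plates were quality-checked by Z'-factor and normalised to vehicle (100) and a positive kill control (0). The underlying assay incubated breast cancer cell lines for 72 h on 384-well plates with compound, then added 2.5 µl CellTiter-Blue for 2 h at 37 °C and read at 560/590 nm. The value is normalised viability at a single listed concentration of the series.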

BT-549 [2] = assay: as above
Procedure, shortened: as §1

HCC1937 = assay: as above
Procedure, shortened: as §1

DU-4475 [3] = assay: as above
Procedure, shortened: as §1

MDA-MB-231 [4] = assay: as above
Procedure, shortened: as §1

MFM-223 = assay: as above
Procedure, shortened: as §1

Hs578T [5] = assay: as above
Procedure, shortened: as §1

CAL-51 = assay: as above
Procedure, shortened: as §1

CAL-148 [6] = assay: as above
Procedure, shortened: as §1

MDA-MB-453 [7] = assay: as above
Procedure, shortened: as §1

HDQ-P1 [8] = assay: as above
Procedure, shortened: as §1

HCC1143 [9] = assay: drug sensitivity score (DSS), CellTiter-Glo (DSS (AUC-based score)); higher = stronger drug effect (viability inhibition or cytotoxicity); extreme values may be limits of the assay
Procedure, shortened: (§2)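 Breast cancer cell lines were seeded in 20 µl suspension into 384-well plates already holding compound and incubated for 72 h. Each compound was tested at 5 concentrations in 10-fold steps across its own 10,000-fold range. Plates were normalised to 0.1 % DMSO and a positive kill control after CellTox Green and then CellTiter-Glo readings. The area under the fitted dose-response curve served as the basis for the drug sensitivity score.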

BT-549 [10] = assay: as above
Procedure, shortened: as §2

SK-BR-3 = assay: as above
Procedure, shortened: as §2

DU-4475 [11] = assay: as above
Procedure, shortened: as §2

MDA-MB-231 [12] = assay: as above
Procedure, shortened: as §2

CAL-120 = assay: as above
Procedure, shortened: as §2

MDA-MB-468 = assay: as above
Procedure, shortened: as §2

Hs578T [13] = assay: as above
Procedure, shortened: as §2

BT-474 = assay: as above
Procedure, shortened: as §2

CAL-148 [14] = assay: as above
Procedure, shortened: as §2

MDA-MB-453 [15] = assay: as above
Procedure, shortened: as §2

HDQ-P1 [16] = assay: as above
Procedure, shortened: as §2

MCF-10A = assay: as above
Procedure, shortened: as §2

CC(C)C(=O)Nc1ccc([N+](=O)[O-])c(C(F)(F)F)c1 [Flutamide]
normalised viability [%]
Details | 3 nM | 10 nM | 30 nM | 100 nM | 1000 nM | 10000 nM
BT-549 [2] | – | 89.7 | – | – | 84.3 | 90
CAL-51 | 118 | – | 108 | 106 | – | –
CAL-148 [6] | 95.5 | – | 99.9 | 103 | – | –
DU-4475 [3] | 111 | – | 85.1 | 97.2 | – | –
HCC1143 [1] | – | 82 | – | – | 86.3 | 82.5
HCC1937 | – | 96.9 | – | – | 84.2 | 97
HDQ-P1 [8] | 109 | – | 105 | 109 | – | –
Hs578T [5] | – | 96.4 | – | – | 109 | 96.7
MDA-MB-231 [4] | – | 93.7 | – | – | 99.5 | 102
MDA-MB-453 [7] | 123 | – | 94.8 | 107 | – | –
MFM-223 | – | 89.4 | – | – | 84.8 | 109

Details | drug sensitivity score
BT-474 | 0
BT-549 [10] | 0
CAL-120 | 0
CAL-148 [14] | 0
DU-4475 [11] | 0
HCC1143 [9] | 0
HDQ-P1 [16] | 0
Hs578T [13] | 0
MCF-10A | 0
MDA-MB-231 [12] | 0
MDA-MB-453 [15] | 0
MDA-MB-468 | 0
SK-BR-3 | 0

COc1cc2c(Oc3ccc(NC(=O)C4(C(=O)Nc5ccc(F)cc5)CC4)cc3F)ccnc2cc1OCCCN1CCOCC1 [Foretinib]
normalised viability [%]
Details | 0.3 nM | 1 nM | 3 nM | 10 nM | 100 nM | 1000 nM
BT-549 [2] | – | 79 | – | – | 101 | 72
CAL-51 | 99.1 | – | 88.6 | 95.2 | – | –
CAL-148 [6] | 99.8 | – | 97.6 | 96.4 | – | –
DU-4475 [3] | 104 | – | 91.8 | 105 | – | –
HCC1143 [1] | – | 104 | – | – | 103 | 82.8
HCC1937 | – | 80.8 | – | – | 91.3 | 64.9
HDQ-P1 [8] | 107 | – | 99.2 | 105 | – | –
Hs578T [5] | – | 114 | – | – | 106 | 61
MDA-MB-231 [4] | – | 97.8 | – | – | 113 | 50.6
MDA-MB-453 [7] | 115 | – | 91.6 | 85.9 | – | –
MFM-223 | – | 102 | – | – | 58.5 | 35

Details | drug sensitivity score
BT-474 | 2.19
BT-549 [10] | 0
CAL-120 | 2.45
CAL-148 [14] | 1.11
DU-4475 [11] | 0
HCC1143 [9] | 1.22
HDQ-P1 [16] | 0
Hs578T [13] | 0
MCF-10A | 1.41
MDA-MB-231 [12] | 2.4
MDA-MB-453 [15] | 0
MDA-MB-468 | 1.64
SK-BR-3 | 0

NC(=O)NO [Hydroxyurea]
normalised viability [%]
Details | 30 nM | 100 nM | 300 nM | 1000 nM | 10000 nM | 100000 nM
BT-549 [2] | – | 82.8 | – | – | 93.8 | 87
CAL-51 | 103 | – | 107 | 104 | – | –
CAL-148 [6] | 106 | – | 116 | 112 | – | –
DU-4475 [3] | 122 | – | 115 | 98.3 | – | –
HCC1143 [1] | – | 99.1 | – | – | 99.3 | 92.4
HCC1937 | – | 86.9 | – | – | 81.2 | 72.7
HDQ-P1 [8] | 108 | – | 122 | 111 | – | –
Hs578T [5] | – | 110 | – | – | 104 | 90.3
MDA-MB-231 [4] | – | 113 | – | – | 98.8 | 93.2
MDA-MB-453 [7] | 124 | – | 102 | 116 | – | –
MFM-223 | – | 105 | – | – | 98.8 | 116

Details | drug sensitivity score
BT-474 | 0
BT-549 [10] | 1.87
CAL-120 | 0
CAL-148 [14] | 0
DU-4475 [11] | 0
HCC1143 [9] | 0
HDQ-P1 [16] | 0
Hs578T [13] | 0
MCF-10A | 0
MDA-MB-231 [12] | 0
MDA-MB-453 [15] | 0
MDA-MB-468 | 0
SK-BR-3 | 0

O=NN(CCCl)C(=O)NC1CCCCC1 [Lomustine]
normalised viability [%]
Details | 3 nM | 10 nM | 30 nM | 100 nM | 1000 nM | 10000 nM
BT-549 [2] | – | 84.4 | – | – | 86.6 | 84.6
CAL-51 | 110 | – | 109 | 110 | – | –
CAL-148 [6] | 100 | – | 113 | 99.4 | – | –
DU-4475 [3] | 117 | – | 98.7 | 88.2 | – | –
HCC1143 [1] | – | 89.3 | – | – | 90.5 | 89.5
HCC1937 | – | 92 | – | – | 90.4 | 96
HDQ-P1 [8] | 117 | – | 98.7 | 105 | – | –
Hs578T [5] | – | 105 | – | – | 98.1 | 98.7
MDA-MB-231 [4] | – | 110 | – | – | 100 | 95.9
MDA-MB-453 [7] | 120 | – | 102 | 94.7 | – | –
MFM-223 | – | 84.7 | – | – | 87.9 | 54.7

Details | drug sensitivity score
BT-474 | 0
BT-549 [10] | 0
CAL-120 | 0
CAL-148 [14] | 0
DU-4475 [11] | 0
HCC1143 [9] | 0
HDQ-P1 [16] | 0
Hs578T [13] | 0
MCF-10A | 0
MDA-MB-231 [12] | 0
MDA-MB-453 [15] | 0
MDA-MB-468 | 0
SK-BR-3 | 0

O=C(O)CC[C@H]1CC[C@@](c2cc(F)ccc2F)(S(=O)(=O)c2ccc(Cl)cc2)CC1 [MK-0752]
normalised viability [%]
Details | 0.3 nM | 1 nM | 3 nM | 10 nM | 100 nM | 1000 nM
BT-549 [2] | – | 93.4 | – | – | 80.3 | 99.1
CAL-51 | 106 | – | 101 | 98.8 | – | –
CAL-148 [6] | 99.1 | – | 109 | 111 | – | –
DU-4475 [3] | 115 | – | 91.5 | 101 | – | –
HCC1143 [1] | – | 81.5 | – | – | 108 | 89.4
HCC1937 | – | 96 | – | – | 86.9 | 92.1
HDQ-P1 [8] | 122 | – | 96.5 | 115 | – | –
Hs578T [5] | – | 137 | – | – | 103 | 113
MDA-MB-231 [4] | – | 97.7 | – | – | 92.5 | 89.7
MDA-MB-453 [7] | 113 | – | 107 | 125 | – | –
MFM-223 | – | 103 | – | – | 94.3 | 97.9

Details | drug sensitivity score
BT-474 | 0
BT-549 [10] | 0
CAL-120 | 0
CAL-148 [14] | 0
DU-4475 [11] | 0
HCC1143 [9] | 0
HDQ-P1 [16] | 0
Hs578T [13] | 0
MCF-10A | 0
MDA-MB-231 [12] | 0
MDA-MB-453 [15] | 0
MDA-MB-468 | 0
SK-BR-3 | 0

Reference: the supplement of paper PMC4862054
